Source: patent publication US9650339B2, “Inhibitors of histone demethylases” (Gilead Sciences, Inc., priority 2013, dated 2017)

Assays:
KDM5B = target: T1, KDM5B (Homo sapiens, UniProt Q9UGL1); assay: Histone lysine demethylase immunofluorescence assay, U2OS cells transfected with KDM5B; type: cell-based; conditions: U2OS cells transfected with pCMVHA KDM5B; mark detected H3K4me2; 20 hours
T1 construct: (a.a. 1-752); host or cells: U2OS
T1 sequence (Q9UGL1 1-752): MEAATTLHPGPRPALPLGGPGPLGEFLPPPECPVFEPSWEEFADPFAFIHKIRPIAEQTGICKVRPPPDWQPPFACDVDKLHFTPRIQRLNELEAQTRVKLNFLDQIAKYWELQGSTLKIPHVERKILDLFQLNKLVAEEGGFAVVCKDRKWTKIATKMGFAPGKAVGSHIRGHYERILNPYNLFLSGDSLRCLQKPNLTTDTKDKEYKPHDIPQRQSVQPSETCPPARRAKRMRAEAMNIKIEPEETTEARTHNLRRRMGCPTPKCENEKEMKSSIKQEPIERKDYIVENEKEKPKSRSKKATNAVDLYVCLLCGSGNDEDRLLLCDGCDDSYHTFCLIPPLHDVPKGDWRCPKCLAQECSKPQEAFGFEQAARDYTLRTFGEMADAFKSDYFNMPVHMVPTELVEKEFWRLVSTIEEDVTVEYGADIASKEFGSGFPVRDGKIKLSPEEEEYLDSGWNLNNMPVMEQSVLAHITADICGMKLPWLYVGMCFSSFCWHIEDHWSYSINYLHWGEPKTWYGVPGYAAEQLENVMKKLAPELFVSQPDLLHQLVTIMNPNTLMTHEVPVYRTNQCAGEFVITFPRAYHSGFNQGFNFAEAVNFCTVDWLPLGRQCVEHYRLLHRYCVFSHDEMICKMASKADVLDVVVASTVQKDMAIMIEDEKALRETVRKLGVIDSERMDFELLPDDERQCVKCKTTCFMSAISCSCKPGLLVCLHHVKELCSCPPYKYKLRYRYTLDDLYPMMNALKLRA
Procedure, shortened: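 U2OS cells were transiently transfected with HA-tagged demethylase and reseeded after 6 h into compound-containing DMEM/10% FBS for 20 h. Cells were fixed in formaldehyde and immunostained for HA and the relevant histone methyl mark, then imaged. IC50 is based on mean mark staining in HA+ transfected cells.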

KDM4B (JMJD2B) = target: T2, KDM4B (JMJD2B) (Homo sapiens, UniProt O94953); assay: Histone lysine demethylase AlphaLISA assay, KDM4B; type: biochemical; conditions: read-out: KDM4B HDME Inhibition IC50
T2 construct: 2-500; purchased BPS; host or cells: Bac (baculovirus system)
T2 sequence (O94953 2-500): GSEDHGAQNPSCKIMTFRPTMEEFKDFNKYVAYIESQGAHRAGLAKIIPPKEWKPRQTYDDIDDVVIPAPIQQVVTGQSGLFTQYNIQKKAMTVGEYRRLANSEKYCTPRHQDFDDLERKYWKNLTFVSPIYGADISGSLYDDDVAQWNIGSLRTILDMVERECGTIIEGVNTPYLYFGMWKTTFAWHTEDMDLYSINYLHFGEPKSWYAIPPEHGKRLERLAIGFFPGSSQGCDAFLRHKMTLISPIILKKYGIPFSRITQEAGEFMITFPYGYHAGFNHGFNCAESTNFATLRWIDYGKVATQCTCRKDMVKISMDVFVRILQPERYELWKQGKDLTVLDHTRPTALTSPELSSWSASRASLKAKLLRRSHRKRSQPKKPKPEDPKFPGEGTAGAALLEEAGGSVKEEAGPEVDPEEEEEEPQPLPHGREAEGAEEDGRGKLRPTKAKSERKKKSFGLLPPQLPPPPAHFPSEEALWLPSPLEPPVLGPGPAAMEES
Procedure, shortened: (§1)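 Steps: enzyme equilibrated 10 min in buffer; compounds in 3% DMSO solution added, 10 min; substrate mix added (peptide, 25 μM L-Asc, 10 μM α-KG), room temperature; acceptor beads, then streptavidin donor beads, dark incubations; plate read.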

KDM6B (JMJD3) = target: T3, KDM6B (JMJD3) (Homo sapiens, UniProt O15054); assay: Histone lysine demethylase AlphaLISA assay, KDM6B; type: biochemical; conditions: read-out: KDM6B HDME Inhibition IC50
T3 construct: 1043-end; purchased BPS; host or cells: Bac (baculovirus system)
T3 sequence (O15054 1043-1682 isoform O15054-1 limits assumed): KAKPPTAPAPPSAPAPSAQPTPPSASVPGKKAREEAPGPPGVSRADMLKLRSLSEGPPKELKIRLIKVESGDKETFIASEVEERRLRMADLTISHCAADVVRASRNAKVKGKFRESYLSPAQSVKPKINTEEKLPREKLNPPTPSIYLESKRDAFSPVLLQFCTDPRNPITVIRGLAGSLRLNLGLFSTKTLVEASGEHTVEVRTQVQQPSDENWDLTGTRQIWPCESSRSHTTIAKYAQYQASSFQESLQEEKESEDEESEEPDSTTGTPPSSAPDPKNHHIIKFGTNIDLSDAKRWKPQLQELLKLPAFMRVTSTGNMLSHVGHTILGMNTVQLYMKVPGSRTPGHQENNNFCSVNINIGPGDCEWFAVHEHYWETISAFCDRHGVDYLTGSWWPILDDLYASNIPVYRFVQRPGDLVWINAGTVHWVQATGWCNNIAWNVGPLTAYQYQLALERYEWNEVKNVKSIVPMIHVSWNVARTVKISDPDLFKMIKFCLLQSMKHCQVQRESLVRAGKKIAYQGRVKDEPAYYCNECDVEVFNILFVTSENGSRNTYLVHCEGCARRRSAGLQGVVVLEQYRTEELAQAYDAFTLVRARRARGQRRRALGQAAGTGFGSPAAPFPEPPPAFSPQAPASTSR
Procedure, shortened: as §1

IC50 (KDM5B) [µM] | IC50 (KDM4B (JMJD2B)) [µM] | IC50 (KDM6B (JMJD3)) [µM] | Compound
< 0.25 | – | – | CCN(CC)CCCCNCc1cc(C2NCCCN2C)ccn1 (stereo not drawn) [Compound 68, [4-(diethylamino)butyl]({[4-(1-methyl-1,3-diazinan-2-yl)pyridin-2-yl]methyl})amine]
> 2.5 | < 0.25 | > 2.5 | COC(=O)CNCc1cc(/C=N/C2CC2)ccn1 [Compound 59, methyl 2-[({4-[N-cyclopropyl-carboximidoyl]pyridin-2-yl}methyl)amino]-acetate]
0.25 to 2.5 | < 0.25 | > 2.5 | COc1ccccc1CN1CCC(NC(=O)CNCc2cc(CNC3CC3)ccn2)CC1 [Compound 20, 2-[({4-[(cyclopropylamino)-methyl]pyridin-2-yl}methyl)amino]-N-{1-[(2-methoxyphenyl)methyl]-piperidin-4-yl}acetamide]
< 0.25 | > 2.5 | > 2.5 | CN(C)CCCCNCc1cc(CN)ccn1 [Compound 2, [2-({[4-(dimethylamino)butyl]-amino}methyl)pyridin-4-yl]methanamine]
– | > 2.5 | > 2.5 | CN(C)CCNCc1ccnc(CNCCCN(C)Cc2ccccc2)c1 [Compound 18, benzyl[3-({[4-({[2-(dimethylamino)ethyl]-amino}methyl)pyridin-2-yl]methyl}-amino)propyl]-methylamine]
> 2.5 | < 0.25 | > 2.5 | O=Cc1ccnc(CNCC(=O)NC2CCN(Cc3ccccc3)C2)c1 (stereo not drawn) [Compound 113, N-(1-benzylpyrrolidin-3-yl)-2-{[(4-formylpyridin-2-yl)methyl]amino}-acetamide]
0.25 to 2.5 | < 0.25 | – | O=Cc1ccnc(CNCCCCN(Cc2ccccc2)C2CC2)c1 [Compound 109, 2-[({4-[benzyl-(cyclopropyl)amino]-butyl}amino)methyl]-pyridine-4-carbaldehyde]
< 0.25 | – | – | CCN(CCN(C)C)C(=O)CN(Cc1cc(CNC(=O)C(F)(F)F)ccn1)C(=O)C(F)(F)F [Compound 26, N-[(2-{[N-({[2-(dimethylamino)ethyl]-(ethyl)carbamoyl}-methyl)-2,2,2-trifluoroacetamido]-methyl}pyridin-4-yl)methyl]-2,2,2-trifIuoroacetamide]
> 2.5 | > 2.5 | > 2.5 | COCCNCc1ccnc(CNCCCN(C)Cc2ccccc2)c1 [Compound 19, benzyl(3-{[(4-{[(2-methoxyethyl)amino]-methyl}pyridin-2-yl)methyl]amino}-propyl)methylamine]
